≈ marks a conversion by molar mass, not a printed value.
Key:
[1] = physchem; conditions: buffer
Description: Aqueous solubility of the compound

[2] = target: Wee1-like protein kinase (Homo sapiens, UniProt P30291)
Description: Inhibition of human Wee1 assessed as polyornithine-tyrosine copolymer phosphorylation

[3] = target: Proto-oncogene tyrosine-protein kinase Src (Homo sapiens, UniProt P12931)
[4] = target: Cyclin-dependent kinase 1/cyclin B1 (Homo sapiens, UniProt P06493); type: cell-based, HT-29
Description: Inhibition of Cdc2/cyclin B assessed as inhibition of histone H1 phosphorylation in human HT29 cells

[5] = target: Cyclin-dependent kinase 1 (Homo sapiens, UniProt P06493); type: cell-based; conditions: ht-29
Chain of Cyclin-dependent kinase 1 (P06493 whole entry): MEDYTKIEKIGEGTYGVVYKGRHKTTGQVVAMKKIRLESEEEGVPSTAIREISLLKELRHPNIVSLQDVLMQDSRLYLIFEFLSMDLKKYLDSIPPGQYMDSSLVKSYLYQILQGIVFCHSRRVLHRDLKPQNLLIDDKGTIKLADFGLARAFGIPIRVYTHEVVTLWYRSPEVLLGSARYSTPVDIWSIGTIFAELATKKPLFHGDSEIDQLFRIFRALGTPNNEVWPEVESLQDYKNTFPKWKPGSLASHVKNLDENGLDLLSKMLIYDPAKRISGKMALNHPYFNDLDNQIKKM
Description: Inhibition of Cdc2 Tyr15 phosphorylation in human HT29 cells by Western blot

Chain of Wee1-like protein kinase (P30291 whole entry): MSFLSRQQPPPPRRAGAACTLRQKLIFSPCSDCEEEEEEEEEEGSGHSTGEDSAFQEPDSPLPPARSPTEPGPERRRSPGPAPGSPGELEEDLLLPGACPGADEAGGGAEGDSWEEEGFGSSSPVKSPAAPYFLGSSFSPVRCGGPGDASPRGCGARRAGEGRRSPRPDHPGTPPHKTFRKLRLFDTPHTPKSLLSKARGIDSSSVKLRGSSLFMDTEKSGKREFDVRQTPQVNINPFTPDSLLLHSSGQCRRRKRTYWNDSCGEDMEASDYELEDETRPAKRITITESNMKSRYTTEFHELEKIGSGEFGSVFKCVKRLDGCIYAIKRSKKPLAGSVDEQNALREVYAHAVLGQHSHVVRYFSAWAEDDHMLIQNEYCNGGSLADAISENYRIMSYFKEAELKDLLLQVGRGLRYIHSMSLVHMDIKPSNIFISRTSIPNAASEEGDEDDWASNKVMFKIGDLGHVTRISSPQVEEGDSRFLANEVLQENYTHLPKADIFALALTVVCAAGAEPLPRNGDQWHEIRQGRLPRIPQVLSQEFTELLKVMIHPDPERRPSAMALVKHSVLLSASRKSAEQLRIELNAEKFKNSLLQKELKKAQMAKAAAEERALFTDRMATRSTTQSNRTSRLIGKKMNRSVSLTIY
Chain of Proto-oncogene tyrosine-protein kinase Src (P12931 2-536 limits assumed): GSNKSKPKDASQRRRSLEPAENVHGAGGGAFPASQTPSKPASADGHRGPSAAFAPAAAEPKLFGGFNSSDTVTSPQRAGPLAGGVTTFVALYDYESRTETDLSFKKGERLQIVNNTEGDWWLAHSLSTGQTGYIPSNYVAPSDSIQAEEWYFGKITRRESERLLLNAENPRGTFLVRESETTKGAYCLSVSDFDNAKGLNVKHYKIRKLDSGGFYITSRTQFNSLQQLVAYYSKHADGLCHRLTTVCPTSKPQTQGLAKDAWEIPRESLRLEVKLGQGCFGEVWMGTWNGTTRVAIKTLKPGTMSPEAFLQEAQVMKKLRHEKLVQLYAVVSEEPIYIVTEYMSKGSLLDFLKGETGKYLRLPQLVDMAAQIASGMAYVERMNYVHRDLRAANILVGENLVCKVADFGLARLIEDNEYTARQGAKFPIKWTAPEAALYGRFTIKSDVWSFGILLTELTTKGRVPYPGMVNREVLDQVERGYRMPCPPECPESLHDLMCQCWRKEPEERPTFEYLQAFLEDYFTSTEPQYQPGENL
Chain of Cyclin-dependent kinase 1/cyclin B1 (P06493 whole entry): as the sequence (P06493 whole entry) above
Chain of Cyclin-dependent kinase 1/cyclin B1 (P14635 whole entry, further chain): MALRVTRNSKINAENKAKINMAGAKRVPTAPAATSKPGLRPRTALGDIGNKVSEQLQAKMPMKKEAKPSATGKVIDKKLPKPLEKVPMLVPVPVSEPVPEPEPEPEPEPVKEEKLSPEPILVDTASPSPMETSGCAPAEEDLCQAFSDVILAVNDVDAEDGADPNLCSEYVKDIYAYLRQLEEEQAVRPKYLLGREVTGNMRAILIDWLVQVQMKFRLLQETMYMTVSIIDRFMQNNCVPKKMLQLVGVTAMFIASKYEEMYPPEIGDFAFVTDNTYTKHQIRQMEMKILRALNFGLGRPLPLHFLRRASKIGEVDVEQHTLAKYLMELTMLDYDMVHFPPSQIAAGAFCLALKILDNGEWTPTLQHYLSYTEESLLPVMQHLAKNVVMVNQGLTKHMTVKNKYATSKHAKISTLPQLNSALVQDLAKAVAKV

| solubility [1] [µg/mL] | IC50 [3] [nM] | Structure (SMILES) | IC50 [2] [nM] | IC50 [4] [nM] | IC50 [5] [nM] |
| --- | --- | --- | --- | --- | --- |
| < 3 | – | O=C1NC(=O)c2c1c(-c1c(Cl)cccc1Cl)cc1c2c2cc(O)ccc2n1CCO | – | – | – |
| – | – | O=C1NC(=O)c2c1c(-c1ccccc1Cl)cc1c2c2cc(O)ccc2n1CCCNc1ccccc1 | 74 | – | – |
| – | – | CN(C)CCCn1c2ccc(O)cc2c2c3c(c(-c4c(Cl)cccc4Cl)cc21)C(=O)NC3=O | 140 | – | – |
| – | 27000 | O=C1NC(=O)c2c1c(-c1ccccc1)cc1c2c2cc(O)ccc2n1CCn1ccnc1 | – | – | – |
| < 3 | – | O=C1NC(=O)c2c1c(-c1ccccc1)cc1c2c2cc(O)ccc2n1CCCn1ccnc1 | 110 | – | – |
| < 3 | – | O=C1NC(=O)c2c1c(-c1c(Cl)cccc1Cl)cc1c2c2cc(O)ccc2n1CCn1ccnc1 | 120 | – | – |
| 18 (≈ 35.6 µM) | – | O=C1NC(=O)c2c1c(-c1ccccc1Cl)cc1c2c2cc(O)ccc2n1CC[S+]([O-])c1nnc[nH]1 (configuration not stated) | 9 | – | – |
| 12 (≈ 27.5 µM) | 2500 | O=C1NC(=O)c2c1c(-c1ccccc1Cl)cc1c2c2cc(O)ccc2n1CC(O)CO (configuration not stated) | 23 | – | – |
| – | – | O=C(O)CCCn1c2ccc(O)cc2c2c3c(c(-c4ccccc4Cl)cc21)C(=O)NC3=O | 13 | > 3400 | > 10000 |
| – | 5600 | CN(C)CCCn1c2ccc(O)cc2c2c3c(c(-c4ccccc4)cc21)C(=O)NC3=O | 360 | – | – |
| – | – | CNCCCn1c2ccc(O)cc2c2c3c(c(-c4ccccc4)cc21)C(=O)NC3=O | 280 | – | – |
| 16 (≈ 30.7 µM) | – | O=C1NC(=O)c2c1c(-c1ccccc1Cl)cc1c2c2cc(O)ccc2n1CCS(=O)(=O)c1nnc[nH]1 | 19 | – | – |
| 3.2 (≈ 6.33 µM) | – | O=C1NC(=O)c2c1c(-c1c(Cl)cccc1Cl)cc1c2c2cc(O)ccc2n1CCCn1ccnc1 | 59 | – | – |
| < 3 | – | O=C1NC(=O)c2c1c(-c1ccccc1Cl)cc1c2c2cc(O)ccc2n1CCN1CCOCC1 | 64 | 1700 | 250 |
| – | – | CN1CCN(CCCn2c3ccc(O)cc3c3c4c(c(-c5ccccc5Cl)cc32)C(=O)NC4=O)CC1 | 82 | – | – |
| < 3 | – | COc1ccccc1-c1cc2c(c3c1C(=O)NC3=O)c1cc(O)ccc1n2CCCO | – | – | – |
| < 3 | – | NC(=O)CCn1c2ccc(O)cc2c2c3c(c(-c4ccccc4)cc21)C(=O)NC3=O | 21 | – | – |
| > 60 | – | CN(C)CC(O)Cn1c2ccc(O)cc2c2c3c(c(-c4ccccc4Cl)cc21)C(=O)NC3=O (configuration not stated) | 58 | > 3400 | 250 |
| 18 (≈ 45.1 µM) | 31000 | CN(C)CCn1c2ccc(O)cc2c2c3c(c(-c4ccccc4)cc21)C(=O)NC3=O | 200 | – | – |
| – | – | N#CCCCn1c2ccc(O)cc2c2c3c(c(-c4ccccc4Cl)cc21)C(=O)NC3=O | 33 | – | – |
| – | – | O=C1NC(=O)c2c1c(-c1ccccc1Cl)cc1c2c2cc(O)ccc2n1CCCn1ccnc1 | 54 | – | – |

| solubility [1] [µg/mL] | IC50 [3] [nM] | Structure (SMILES) | IC50 [2] [nM] | IC50 [4] [nM] | IC50 [5] [nM] |
| --- | --- | --- | --- | --- | --- |
| – | > 50000 | O=C1NC(=O)c2c1c(-c1ccccc1Cl)cc1[nH]c3ccc(O)cc3c21 | – | – | – |
| – | – | O=C1NC(=O)c2c1c(-c1c(Cl)cccc1Cl)cc1c2c2cc(O)ccc2n1CCCN1CCOCC1 | 64 | – | – |
| – | – | O=C1NC(=O)c2c1c(-c1ccccc1Cl)cc1c2c2cc(O)ccc2n1CCn1ccnc1 | 92 | – | – |
| < 3 | – | O=C1NC(=O)c2c1c(-c1ccccc1Cl)cc1c2c2cc(O)ccc2n1CCCO | – | 650 | – |
| < 3 | – | O=C1NC(=O)c2c1c(-c1ccccc1)cc1c2c2cc(O)ccc2n1CCCO | 200 | – | – |
| – | – | O=C1NC(=O)c2c1c(-c1ccccc1)cc1c2c2cc(O)ccc2n1CCCNc1ccccc1 | 93 | – | – |
| – | – | O=C1NC(=O)c2c1c(-c1c(Cl)cccc1Cl)cc1c2c2cc(O)ccc2n1CCN1CCOCC1 | 110 | – | – |
| > 60 | – | O=C(O)CCn1c2ccc(O)cc2c2c3c(c(-c4ccccc4Cl)cc21)C(=O)NC3=O | – | – | – |
| < 3 | 46000 | O=C1NC(=O)c2c1c(-c1ccccc1)cc1c2c2cc(O)ccc2n1CCCN1CCOCC1 | 290 | – | – |
| – | – | NC(=O)CCn1c2ccc(O)cc2c2c3c(c(-c4ccccc4Cl)cc21)C(=O)NC3=O | 6 | > 3400 | > 10000 |
| – | – | CN(C)CCCn1c2ccc(O)cc2c2c3c(c(-c4ccccc4Cl)cc21)C(=O)NC3=O | 100 | – | – |
| > 60 | 13000 | O=C(O)CCn1c2ccc(O)cc2c2c3c(c(-c4ccccc4)cc21)C(=O)NC3=O | – | – | – |
| 3 (≈ 6.12 µM) | – | O=C1NC(=O)c2c1c(-c1ccccc1Cl)cc1c2c2cc(O)ccc2n1CCSc1nnc[nH]1 | 24 | – | – |
| – | – | O=C1NC(=O)c2c1c(-c1ccccc1)cc1c2c2cc(O)ccc2n1CCO | 25 | – | – |
| 28 (≈ 59.8 µM) | 17000 | CN1CCN(CCCn2c3ccc(O)cc3c3c4c(c(-c5ccccc5)cc32)C(=O)NC4=O)CC1 | 300 | – | – |
| – | – | CN1CCN(CCCn2c3ccc(O)cc3c3c4c(c(-c5c(Cl)cccc5Cl)cc32)C(=O)NC4=O)CC1 | 62 | – | – |
| > 60 | – | CN(C)CCNC(=O)CCn1c2ccc(O)cc2c2c3c(c(-c4ccccc4)cc21)C(=O)NC3=O | – | – | – |
| 14 (≈ 31.7 µM) | – | O=C1NC(=O)c2c1c(-c1ccccc1)cc1c2c2cc(O)ccc2n1CCN1CCOCC1 | 140 | – | – |
| – | – | CNCC(O)Cn1c2ccc(O)cc2c2c3c(c(-c4ccccc4Cl)cc21)C(=O)NC3=O (configuration not stated) | 57 | – | – |
| – | – | O=C1NC(=O)c2c1c(-c1c(Cl)cccc1Cl)cc1c2c2cc(O)ccc2n1CCCNc1ccccc1 | 67 | – | – |

| Structure (SMILES) | solubility [1] [µg/mL] | IC50 [3] [nM] | IC50 [2] [nM] | IC50 [4] [nM] | IC50 [5] [nM] |
| --- | --- | --- | --- | --- | --- |
| CN(C)CCn1c2ccc(O)cc2c2c3c(c(-c4ccccc4Cl)cc21)C(=O)NC3=O | 8.5 (≈ 19.6 µM) | – | 96 | – | – |
| O=C(O)CCn1c2ccc(O)cc2c2c3c(c(-c4c(Cl)cccc4Cl)cc21)C(=O)NC3=O | 33 (≈ 70.3 µM) | – | 390 | – | – |
| CN(C)CCNC(=O)CCn1c2ccc(O)cc2c2c3c(c(-c4ccccc4Cl)cc21)C(=O)NC3=O | > 60 | – | 35 | 1300 | < 250 |
| CN(C)CCNC(=O)CCn1c2ccc(O)cc2c2c3c(c(-c4c(Cl)cccc4Cl)cc21)C(=O)NC3=O | > 60 | – | 14 | – | – |
| O=C1NC(=O)c2c1c(-c1ccccc1Cl)cc1c2c2cc(O)ccc2n1CCO | < 3 | – | 45 | – | – |
| COCCCn1c2ccc(O)cc2c2c3c(c(-c4ccccc4Cl)cc21)C(=O)NC3=O | < 3 | – | 27 | – | – |
| NC(=O)CCn1c2ccc(O)cc2c2c3c(c(-c4c(Cl)cccc4Cl)cc21)C(=O)NC3=O | < 3 | – | 330 | – | – |
| COC(=O)CCn1c2ccc(O)cc2c2c3c(c(-c4ccccc4Cl)cc21)C(=O)NC3=O | < 3 | – | 30 | – | – |
| CS(=O)(=O)NC(=O)CCn1c2ccc(O)cc2c2c3c(c(-c4ccccc4Cl)cc21)C(=O)NC3=O | > 60 | – | 12 | > 3400 | 250 |
| CNCCCn1c2ccc(O)cc2c2c3c(c(-c4ccccc4Cl)cc21)C(=O)NC3=O | 5.2 (≈ 12 µM) | – | 69 | 710 | < 250 |
| N#CCCn1c2ccc(O)cc2c2c3c(c(-c4ccccc4Cl)cc21)C(=O)NC3=O | < 3 | – | 15 | > 3400 | < 250 |
| CN(C)CCn1c2ccc(O)cc2c2c3c(c(-c4c(Cl)cccc4Cl)cc21)C(=O)NC3=O | 7.4 (≈ 15.8 µM) | – | 170 | – | – |
| O=C1NC(=O)c2c1c(-c1ccccc1Cl)cc1c2c2cc(O)ccc2n1CCCc1nnn[nH]1 | > 60 | – | 16 | > 3400 | > 10000 |
| O=C1NC(=O)c2c1c(-c1ccccc1Cl)cc1c2c2cc(O)ccc2n1CCc1nnn[nH]1 | > 60 | – | 21 | > 3400 | 2500 |
| CNCCCn1c2ccc(O)cc2c2c3c(c(-c4c(Cl)cccc4Cl)cc21)C(=O)NC3=O | 7.3 (≈ 15.6 µM) | – | 110 | – | – |
| O=C1NC(=O)c2c1c(-c1c(Cl)cccc1Cl)cc1c2c2cc(O)ccc2n1CCCO | < 3 | – | 7 | – | – |
| O=C(CCn1c2ccc(O)cc2c2c3c(c(-c4ccccc4Cl)cc21)C(=O)NC3=O)NS(=O)(=O)c1ccccc1 | 47 (≈ 81.9 µM) | – | 7 | – | – |

Reference: ChEMBL document CHEMBL1156685, “Synthesis and structure-activity relationships of N-6 substituted analogues of 9-hydroxy-4-phenylpyrrolo[3,4-c]carbazole-1,3(2H,6H)-diones as inhibitors of Wee1 and Chk1 checkpoint kinases” (Eur J Med Chem, 2008)
